Test results reported in patent publication US20160097044A1, “Antimicrobial Enzyme Fusions Reduce Resistance and Kill Intracellular Staphylococcus aureus” (The United States of America, as Represented by the …, priority 2014, published 2016).

How the values were obtained:
[1] = test system: live S. aureus strain Newman cells; experiment: Turbidity reduction assay; assay type: cell-based; conditions: 30 minute assay, 150 mM NaCl in SLB, FIG. 3d
Excerpt: FIGS. 3a-3d depict peptidoglycan hydrolase purity and the S. aureus bactericidal assay. […] FIG. 3b is a zymogram analysis using whole S. aureus (Newman) cells embedded within the gel matrix. FIG. 3c is a plate lysis analysis of peptidoglycan hydrolase constructs using live S. aureus (Newman) cell lawns clarified with indicated picomoles of each purified peptidoglycan hydrolase. FIG. 3d is a turbidity reduction analysis showing the linear range of enzyme concentration. A twofold dilution series of each enzyme was used in a 30 minute turbidity reduction assay on live S. aureus strain Newman cells to determine the enzyme concentrations that are within the linear range for each enzyme. Reaction conditions were 150 mM NaCl in SLB. Black, dark grey, light grey, and white bars represent peptidoglycan hydrolase constructs lysostaphin (L), LysK (K), triple fusion K-L, and triple fusion L-K, respectively, as named in FIG. 1a. Values are reported as the maximum rate ΔOD600nm/min±SEM.
SDS-PAGE, zymogram, turbidity reduction and plate lysis assays were performed as described previously (Becker et al. 2009, supra) with minor modifications as follows. For SDS-PAGE and zymogram analysis, one μg of the purified peptidoglycan hydrolase proteins and Kaleidoscope protein standards (Invitrogen, Carlsbad, Calif.) were analyzed by 15% SDS-PAGE. […]

S. aureus Newbould 305 = experiment: Murine model of mastitis, bacterial load; assay type: in vivo, C57BL6/SJL mice; conditions: single 1.25 nmoles intramammary infusion 30 minutes post infection, 18 h
Description: FIG. 6a depicts the specific activity of peptidoglycan hydrolase fusion constructs in vitro in a turbidity reduction assay with S. aureus Newbould 305 resuspended in lysis buffer to an OD600nm of 1.0 and treated with 1 μM final concentrations of each peptidoglycan hydrolase. The maximum specific activity for three experiments are represented as an average with SEM error bars. FIG. 6b depicts the bacterial burden in mice with mastitis treated with recombinant peptidoglycan hydrolases. Colony Forming Units (CFUs) from infected murine mammary glands following a single treatment with 50 μl of 25 μM peptidoglycan hydrolase (1.25 nmol). Each data point represents the average of duplicate bacterial platings. The horizontal bars represent the average CFU/mg for each group. FIG. 6c illustrates the TNFα response in mice with mastitis that were treated with peptidoglycan hydrolases. Data represents a minimum of 7 measurements in duplicate. Log TNFα was used for statistical analysis. Single asterisks indicate a significant difference from buffer control (p<0.05); double asterisks indicate a significant difference from the parental enzyme (p<0.05).
To evaluate the efficacy of purified, individually administered peptidoglycan hydrolases in a murine model of bovine mastitis, female C57BL6/SJL mice were challenged by the intramammary route with 100 CFU S. aureus Newbould 305 in 50 μl buffer. A single 1.25 nmoles intramammary infusion of each desired peptidoglycan hydrolase (50 μl of a 25 μM solution) or 50 μl PBS was given 30 minutes post infection [with up to six glands treated per animal, each gland receiving a unique treatment] as described earlier (Schmelcher et al. 2012. Appl. Environ. Microbiol. 78:2297-2305; Kerr et al. 2001. Nat. Biotechnol. 19:66-70). Dams were euthanized 18 h post infusion, the mammary glands were aseptically dissected, and portions of the gland were used for determination of bacterial load and TNFα concentrations, as described previously (Schmelcher et al., supra).
Statistical analysis: The variables were analyzed as two-factor mixed models with Treatment as the factor and Mouse as random Blocks. This model […] within mouse correlations. Log(TNFα) was used. The variance grouping technique was used for log CFU and log TNFα to correct for variance heterogeneity. Means comparisons were done with Sidak adjusted p-values so that the experiment-wise error was 0.05. Log(TNFα) is back-transformed to the original units for graphing.

S. aureus = experiment: Murine model of staphylococcal osteomyelitis (femur); assay type: in vivo, C57BL/6J mice; conditions: 5 mg/kg i.m. at site of infection, twice in 24 h, N=6
Description: Neonatal mouse whole calvaria were treated for 4 hours with chimeric peptidoglycan hydrolases or buffer alone, 24 hours post inoculation with GFP-expressing S. aureus. Calvaria were embedded in freeze media, sectioned, and subjected to fluorescence imaging. The image shown is a representative figure for triplicate sections of three separate calvaria. FIG. 8b depicts fluorescence intensity from these sections measured in ImageJ and defined as arbitrary fluorescence standardized to the untreated control. Error bars represent SEM of four replicate experiments. FIG. 8c depicts ex-vivo intracellular S. aureus eradication. Infected calvaria were homogenized and CFU were counted post treatment. Error bars represent SEM. FIG. 8d depicts a murine model of staphylococcal osteomyelitis. C57BL/6J mice were anesthetized and their femurs were surgically exposed. […] The femurs were removed, homogenized, and plated to quantify the bacterial load. […] Asterisks represent statistical significance as determined by one-way ANOVA followed by Tukey's posthoc test.
We utilized a previously described (Marriott, supra) murine model of staphylococcal osteomyelitis that reproduces the clinical and gross pathological phases of inflammatory bone diseases, such as human post-traumatic osteomyelitis. […] Asterisks represent statistical significance as determined by one-way ANOVA followed by Tukey's posthoc test.

Molecule	turbidity reduction activity compared to parental enzymes [1]	bacterial load / clearance of mammary glands (in words) (S. aureus Newbould 305)	bacterial load in femur compared to no treatment (S. aureus)	reduction of bacterial load in mammary glands compared to controls (S. aureus Newbould 305)
K-L: both LysK lytic domains fused to the N-terminus of lysostaphin; SEQ ID NO:5, protein SEQ ID NO:6	as effective as the parental peptidoglycan hydrolases	not able to clear the mammary gland bacterial infection more than buffer alone	significantly reduced bacterial load as compared to no treatment	
L: 247 amino acid mature (secreted) lysostaphin, staphylolytic bacteriocin, C-terminal His6 tag; SEQ ID NO:1 [reference compound]				approximately 4 logs
L-K: LysK lytic domains inserted between lysostaphin's M23 endopeptidase domain and SH3b cell wall binding domain; SEQ ID NO:7, protein SEQ ID NO:8 (protein, Staphylococcus simulans & Phage K) MAATHEHSAQWLNNYKKGYGYGPYPLGINGGMHYGVDFFMNIGTPVKAISSGKIVEAGWSNYGGGNQIGLIENDGVHRQWYMHLSKYNVKVGDYVKAGQIIGWSGSTGYSTAPHLHFQRMVNSFSNSTAQDPMPFLKSAGYGKAGGTVTPTPNTGLDAKTQAEINKRLDAYAKGTVDSPYRVKKATSYDPSFGVMEAGAIDADGYYHAQCQDLITDYVLWLTDNKVRTWGNAKDQIKQSYGTGFKIHENKPSTVPKKGWIAVFTSGSYEQWGHIGIVYDGGNTSTFTILEQNWNGYANKKPTKRVDNYYGLTHFIEIPVKAGTTVKKETAKKSASKTPAPKKKATLKVSKNHINYTMDKRGKKPEGMVIHNDAGRSSGQQYENSLANAGYARYANGIAHYYGSEGYVWEAIDAKNQIAWHTGDGTGANSGNFRFAGIEVCQSMSASDAQFLKNEQAVFQFTAEKFKEWGLTPNRKTVRLHMEFVPTACPHRSMVLHTGFNPVTQGRPSQAIMNKLKDYFIKQIKNYMDKGTSSSTVVKDGKTSSASLDTVTPTPNTGWKTNKYGTLYKSESASFTPNTDIITRTTGPFRSMPQSGVLKAGQTIHYDEVMKQDGHVWVGYTGNSGQRIYLPVRTWNKSTNTLGVLWGTIKLEHHHHHH	as effective as the parental peptidoglycan hydrolases			
